{"source": "patent US8980325B2", "about": "“Compositions and methods for treating digestive disorders” (Revalesio Corporation, priority 2008, dated 2015)", "system": "glutathione peroxidase", "assay": "Hydrogen peroxide tests, glutathione peroxidase reactivity", "format": "biochemical", "conditions": "A340 nm, 25 degrees Celsius; low and high concentration", "description": "The inventive oxygen-enriched output fluid material was tested for the presence of hydrogen peroxide by testing the reactivity with glutathione peroxidase using a standard assay (Sigma). Briefly, glutathione peroxidase enzyme cocktail was constituted in deionized water and the appropriate buffers. Water samples were tested by adding the enzyme cocktail and inverting. Continuous spectrophotometric rate determination was made at A340 nm, and room temperature (25 degrees Celsius).\nWater samples were tested by adding the enzyme cocktail and inverting. Continuous spectrophotometric rate determination was made at A340 nm, and room temperature (25 degrees Celsius).", "data": [{"smiles": "OO", "note": "[hydrogen peroxide]", "values": [{"measurement": "reactivity with glutathione peroxidase", "value": "strong reactivity"}]}]}
